Test results reported in patent US12374538B2, “Systems and methods for quantifying an analyte extracted from a sample” (Purdue Research Foundation, priority 2014, dated 2025).
Values joined by “and” are separate entries in the source; they are usually repeats but may differ in a detail not shown here. Equal values may be shown once.

What was measured:
[1] = log([solute]octanol/[solute]water), un-ionized compound; cited from earlier work
cholinesterase (ChE) = details: human whole blood diluted 10 times, acetylthiocholine 1.8 mg/mL, 5 min incubation in capillary, vs control
Experimental: For testing of a particular solvent, 5 μL blood sample (diluted) was injected into the capillary with the extraction solvent plug immediately after the mixing the acetylthiocholine into the blood. After the 5 min incubation in capillary, the TCh/ATch ratio was measured using SFME nanoESI MS. For the control, 5 min after the mixing acetylthiocholine into the diluted blood, the sample was taken and analyzed immediately using SFME nanoESI MS with ethyl acetate as the extraction phase. Spray voltage of 1.5 kV was used for nanoESI.
SFME-nanoESI was applied for monitoring the enzymatic activity of cholinesterase (ChE) in whole blood samples. […] The blood sample was diluted 10 times to slow down the reaction rate as well as to facilitate the slug flows for SFME. The substrate acetylthiocholine iodine was added into the diluted blood sample at a concentration of 1.8 mg/mL, and then 5 μL sample was taken immediately and injected into the capillary with 5 μL extraction phase. The capillary with the sample and the extraction solvent was left in room temperature 25° C. for incubation. The SFME-nanoESI could be performed repeatedly on the same sample and the ratio of the substrate ATCh and the reaction product TCh could be monitored as a function of time to characterize the enzymatic activity of the ChE. […]

| Compound | Log P (partition coefficient) [1] | reduction of ChE activity due to contact with extraction solvent (cholinesterase (ChE)) |
| --- | --- | --- |
| CN1[C@H]2CC[C@@H]1[C@@H](C(=O)O)[C@@H](OC(=O)c1ccccc1)C2 [benzoylecgonine] | −0.59 and −0.6 | – |
| CN1C(=O)CC[C@H]1c1cccnc1 [cotinine] | 0.07 | – |
| ClC(Cl)Cl [chloroform] | – | more than 60% |
| N[C@@H](Cc1ccccc1)C(=O)O [phenylalanine] | −1.38 | – |
| Cc1ccc(/N=C/N(C)/C=N/c2ccc(C)cc2C)c(C)c1 [amitraz] | 5 | – |
| CCOC(C)=O [ethyl acetate] | – | minimal |
